Experimental data as given in patent publication US20260130372A1 (SYNGENTA CROP PROTECTION AG, priority 2022, published 2026).

Tests used:
Botrytis cinerea = experiment: liquid culture assay, 96well plate, photometric growth inhibition; type: cell-based
Description: (§1) Streptimidone (CAS: 738-72-7) was purchased from a commercial vendor. A stock solution for streptimidone was produced in DMSO (max. 10 mg/ml). Malonomicin was produced according to Law et al, 2018 (Nature Catalys is |VOL 1|December 2018|977-984). A stock solution of malonomicin was produced in water plus 0.025% Tween20.
Assays to test efficacy of mixtures of streptimidone in combination with malonomicin on the control of fungal pathogens in a liquid culture assay were designed for a 96well plate.
Table1: outline of 96well testplate including concentration of compounds per well. The upper number in the cell indicates malonomicin concentration (ppm), the lower number streptimidone concentration (ppm). Column (1) holds a dilution series of streptimidone, row (H) holds a dilution series of malonomicin, column (12) holds cells representing untreated check.
The 96 well plate design allows to compare disease control of the mixture with disease control of the respective single compound at the same rate.
A master plate with 10× concentrated solution of the compound stock solutions diluted in water plus 0.025% Tween20 was prepared. The concentration of DMSO (from the stock of streptimidone) and Tween20 was kept constant in all cells of the master plate. 10 μl was transferred from the master plate to a 96well test plate. The nutrient broth containing the fungal spores/mycelia fragments was then added to the test plate to give an end concentration of 1× for the tested compounds (as outlined in table 1). The test plates were incubated in the dark at […] and 96% rh. The inhibition of fungal growth was determined photometrically after ca 3 days, and percent fungal growth reduction relative to the untreated check was calculated. Efficacy of the mixtures was tested on a fungal species: Botrytis cinerea (EPPO code: BOTRCI)
Conidia of the fungus from cryogenic storage were directly mixed into nutrient broth (Vogel's minimal media).

Puccinia recondita [1] = experiment: leaf disc assay on wheat leaf segments, preventive spray timing; type: in vivo
Description: as §1, with “1|DECEMBER” for “1|December”
(§2) Assays to test efficacy of mixtures of streptimidone in combination with malonomicin on the control of fungal pathogens in a leaf disc assay were designed for two 24well plates.
(§3) Table 5 and table 6: Outline of 24well testplate(1) and testplate(2) including concentration of compounds sprayed per well. The upper number in the cell indicates streptimidone concentration (ppm), the lower number malonomicin concentration (ppm). Column (1) holds a dilution series of streptimidone, row (2-D) holds a dilution series of malonomicin. Well 2-D-(1) represents an untreated check. This design was applied for tests including Puccinia recondita (EPPO code: PUCCRE) with preventive and curative spray timing.
(§4) A first set of master plates with 1× concentrated spray solution of the streptimidone stock diluted in water with concentrations according to table 5 or table 6, respectively, was prepared. Each well contained 2% DMSO and 0.025% Tween20. Accordingly, a second set of master plates with 1× concentrated malonomicin stock diluted in water was prepared. Each well of the second set contained 0.025% Tween20. Leaf segments placed on agar in 24well plates are sprayed with 8 ul of solution from the master plate containing streptimidone and the leaf segments were let to dry, followed 2 hours later by 8 ul of solution from the master plate containing malonomicin. After second sprays have dried, leaf segments are infected with fungal spores to obtrain a preventive application timing. Alternativeley, leaf segments infected one day before spray of the compounds are used, resulting in a curative spray timing. In addition, several plates were produced where leaf segments were sprayed 2× in absence of test compound (with only DMSO and Tween20), representing the untreated check samples. For each leaf segment percent leaf coverage of disease symptoms was assessed. Percent leaf coverage reduction relative to the untreated check was calculated. Efficacy of the mixtures was tested in duplicate and on different fungal species. Reported efficacy values are the average of two replicate results.
Puccinia recondita (EPPO Code: PUCCRE) with Preventive Spray Timing.
Wheat (cultivar Kanzler) leaf segments are placed on agar in multiwell plates (24-well format) and sprayed with test solutions (8 ul per well). After drying, the leaf disks are inoculated with a spore suspension of the fungus. After appropriate incubation the activity of a compound is assessed 8 dpi (days after inoculation) as preventive fungicidal activity.

Puccinia recondita [2] = experiment: leaf disc assay on wheat leaf segments, curative spray timing; type: in vivo
Description: as §1, with “1|DECEMBER” for “1|December”
as §2, §3, §4
Puccinia recondita (EPPO Code: PUCCRE) with Curative Spray Timing.
Wheat (cultivar Kanzler) leaf segments are placed on agar in multiwell plates (24-well format). The leaf disks are then inoculated with a spore suspension of the fungus. One day after inoculation the test solution is sprayed (8 ul per well). After appropriate incubation the activity of a compound is assessed 8 dpi (days after inoculation) as curative fungicidal activity

Structure (SMILES): NC[C@@H]1NC(=O)C(C(=O)CC(NC(=O)[C@@H](N)CO)(C(=O)O)C(=O)O)=C1O [malonomicin, {[(2S)-2-amino-3-hydroxypropanoyl]amino}{2-[(5S)-5-(aminomethyl)-4-hydroxy-2-oxo-2,5-dihydro-1H-pyrrol-3-yl]-2-oxoethyl}malonic acid]
- control of fungal growth (Botrytis cinerea; well H(2), malonomicin 1000 ppm solo): 70%
- control of fungal growth (Botrytis cinerea; well H(3), malonomicin 500 ppm solo): 70%
- control of fungal growth (Botrytis cinerea; well H(4), malonomicin 250 ppm solo): 70%
- control of fungal growth (Botrytis cinerea; well H(5), malonomicin 125 ppm solo): 70%
- control of fungal growth (Botrytis cinerea; well H(6), malonomicin 62.5 ppm solo): 70%
- control of fungal growth (Botrytis cinerea; well H(7), malonomicin 31.25 ppm solo): 50%
- control of fungal growth (Botrytis cinerea; well H(8), malonomicin 15.63 ppm solo): 0%
- control of fungal growth (Botrytis cinerea; well H(9), malonomicin 7.81 ppm solo): 0%
- control of fungal growth (Botrytis cinerea; well H(10), malonomicin 3.00 ppm solo): 0%
- control of fungal growth (Botrytis cinerea; well H(11), malonomicin 1.00 ppm solo): 0%
- control of fungal growth (reduction of symptoms on the leaf segment) (Puccinia recondita [1]; well 2-D(2), malonomicin 200 ppm solo): 100%
- control of fungal growth (reduction of symptoms on the leaf segment) (Puccinia recondita [1]; well 2-D(3), malonomicin 20 ppm solo): 100%
- control of fungal growth (reduction of symptoms on the leaf segment) (Puccinia recondita [1]; well 2-D(4), malonomicin 6.67 ppm solo): 80%
- control of fungal growth (reduction of symptoms on the leaf segment) (Puccinia recondita [1]; well 2-D(5), malonomicin 2.22 ppm solo): 10%
- control of fungal growth (reduction of symptoms on the leaf segment) (Puccinia recondita [1]; well 2-D(6), malonomicin 0.74 ppm solo): 0%
- control of fungal growth (reduction of symptoms on the leaf segment) (Puccinia recondita [2]; curative, well 2-D(2), malonomicin 200 ppm solo): 100%
- control of fungal growth (reduction of symptoms on the leaf segment) (Puccinia recondita [2]; curative, well 2-D(3), malonomicin 20 ppm solo): 100%
- control of fungal growth (reduction of symptoms on the leaf segment) (Puccinia recondita [2]; curative, well 2-D(4), malonomicin 6.67 ppm solo): 100%
- control of fungal growth (reduction of symptoms on the leaf segment) (Puccinia recondita [2]; curative, well 2-D(5), malonomicin 2.22 ppm solo): 70%
- control of fungal growth (reduction of symptoms on the leaf segment) (Puccinia recondita [2]; curative, well 2-D(6), malonomicin 0.74 ppm solo): 35%

Structure (SMILES): C=C/C(C)=C/[C@H](C)C(=O)C[C@H](O)CC1CC(=O)NC(=O)C1 [streptimidone, Streptimidone]
- control of fungal growth (Botrytis cinerea; well A(1), streptimidone 100 ppm solo): 0%
- control of fungal growth (Botrytis cinerea; well B(1), streptimidone 50 ppm solo): 0%
- control of fungal growth (Botrytis cinerea; well C(1), streptimidone 25 ppm solo): 0%
- control of fungal growth (Botrytis cinerea; well D(1), streptimidone 12.5 ppm solo): 0%
- control of fungal growth (Botrytis cinerea; well E(1), streptimidone 6.25 ppm solo): 0%
- control of fungal growth (Botrytis cinerea; well F(1), streptimidone 3.125 ppm solo): 0%
- control of fungal growth (Botrytis cinerea; well G(1), streptimidone 1.56 ppm solo): 0%
- control of fungal growth (reduction of symptoms on the leaf segment) (Puccinia recondita [1]; well 1-A(1), streptimidone 200 ppm solo): 10%
- control of fungal growth (reduction of symptoms on the leaf segment) (Puccinia recondita [1]; well 1-B(1), streptimidone 100 ppm solo): 35%
- control of fungal growth (reduction of symptoms on the leaf segment) (Puccinia recondita [1]; well 1-C(1), streptimidone 50 ppm solo): 0%
- control of fungal growth (reduction of symptoms on the leaf segment) (Puccinia recondita [1]; well 1-D(1), streptimidone 25 ppm solo): 0%
- control of fungal growth (reduction of symptoms on the leaf segment) (Puccinia recondita [1]; well 2-A(1), streptimidone 12.5 ppm solo): 10%
- control of fungal growth (reduction of symptoms on the leaf segment) (Puccinia recondita [1]; well 2-B(1), streptimidone 6.25 ppm solo): 0%
- control of fungal growth (reduction of symptoms on the leaf segment) (Puccinia recondita [1]; well 2-C(1), streptimidone 3.13 ppm solo): 0%
- control of fungal growth (reduction of symptoms on the leaf segment) (Puccinia recondita [2]; curative, well 1-A(1), streptimidone 200 ppm solo): 20%
- control of fungal growth (reduction of symptoms on the leaf segment) (Puccinia recondita [2]; curative, well 1-B(1), streptimidone 100 ppm solo): 20%
- control of fungal growth (reduction of symptoms on the leaf segment) (Puccinia recondita [2]; curative, well 1-C(1), streptimidone 50 ppm solo): 25%
- control of fungal growth (reduction of symptoms on the leaf segment) (Puccinia recondita [2]; curative, well 1-D(1), streptimidone 25 ppm solo): 35%
- control of fungal growth (reduction of symptoms on the leaf segment) (Puccinia recondita [2]; curative, well 2-B(1), streptimidone 6.25 ppm solo): 0%
- control of fungal growth (reduction of symptoms on the leaf segment) (Puccinia recondita [2]; curative, well 2-C(1), streptimidone 3.13 ppm solo): 0%
- control of fungal growth (reduction of symptoms on the leaf segment) (Puccinia recondita [2]; in vivo): 0%
